Earlier results, collected in patent US6461634B1, “Food-based delivery of HGH-stimulating and other nutritional supplements” (priority 1999, dated 2002).

Test system: HGH
Conditions: 5 mg melatonin taken orally one hour prior to vigorous exercise, versus vigorous exercise alone; healthy adult male subjects

## COc1ccc2[nH]cc(CCNC(C)=O)c2c1 [melatonin]
  increase in HGH resulting from vigorous exercise: triple
